Earlier results on 1 compound are cited in patent US20060183897A1, “Biaryl substituted triazoles as sodium channel blockers” (priority 2003, published 2006).

For series [1], the system named is rat models of peripheral nerve injury. The note with it: intravenous application; concentrations that do not affect general behavior and motor function.
Series [2] relates to postherpetic neuralgia (PHN). The following applies: intravenous.
In series [3] the test system is patients with peripheral nerve injury. The following applies: continuous infusion; placebo-controlled.

Each structure is given as a SMILES string.

Consider `CCN(CC)CC(=O)Nc1c(C)cccc1C` [lidocaine], for which, in series [1], the “ectopic activity in the injured nerve” value is “suppress the ectopic activity” and the tactile allodynia entry is on record as “reverse the tactile allodynia”. Further, the “pain intensity associated with postherpetic neuralgia” value in series [2] is “reduced pain intensity”. Moreover, the pain scores entry in series [3] was “reduced pain scores”.
